The IC50 is the midpoint of a concentration-inhibition curve. Read a low IC50 as inhibition by little substance.

Molecules are shown by their SMILES.

This assay concerns the target CDK2/Cyclin E1 (Homo sapiens (Human), UniProt P24941). Nature of the assay: CDK2/Cyclin E1 HTRF enzyme activity assay. In kind it is biochemical. As to conditions: 1 mM ATP; CDK2/Cyclin E1 0.25 nM; 60 minutes at room temperature. The method, then: Example A. CDK2/Cyclin E1 HTRF Enzyme Activity Assay
CDK2/Cyclin E1 enzyme activity assays utilize full-length human CDK2 co-expressed as N-terminal GST-tagged protein with FLAG-Cyclin E1 in a baculovirus expression system (Carna Product Number 04-165). Assays were conducted in white 384-well polystyrene plates in a final reaction volume of 8 μL. CDK2/Cyclin E1 (0.25 nM) was incubated with the compounds of the Examples (40 nL serially diluted in DMSO) in the presence of ATP (50 μM or 1 mM) and 50 nM ULight™-labeled eIF4E-binding protein 1 (THR37/46) peptide (PerkinElmer) in assay buffer (containing 50 mM HEPES pH 7.5, 1 mM EGTA, 10 mM MgCl2, 2 mM DTT, 0.05 mg/mL BSA, and 0.01% Tween 20) for 60 minutes at room temperature. The reactions were stopped by the addition of EDTA and Europium-labeled anti-phospho-4E-BP1 antibody (PerkinElmer), for a final concentration of 15 mM and 1.5 nM, respectively. HTRF signals were read after 1 hour at room temperature on a PHERAstar FS plate reader (BMG Labtech). Data was analyzed with IDBS XLFit and GraphPad Prism 5.0 software using a three or four parameter dose response curve to determine IC50 for each compound.
`CC(C)Oc1c(-c2cn[nH]c2)ncn2nc(N[C@H]3CCN(S(=O)(=O)CCCN(C)C)C[C@H]3C)nc12` [Example 56, N-((3R,4S)-1-((3-(Dimethylamino)propyl)sulfonyl)-3-methylpiperidin-4-yl)-8-isopropoxy-7-(1H-pyrazol-4-yl)-[1,2,4]triazolo[1,5-c]pyrimidin-2-amine] had an IC50 not above 20 nM.

Compound `CC(C)Oc1c(-c2cn[nH]c2)ncn2nc(N[C@H]3CCN(S(=O)(=O)CCCN(C)C(C)C)C[C@H]3C)nc12` [Example 57, 8-Isopropoxy-N-((3R,4S)-1-((3-(isopropyl(methyl)amino)propyl)sulfonyl)-3-methylpiperidin-4-yl)-7-(1H-pyrazol-4-yl)-[1,2,4]triazolo[1,5-c]pyrimidin-2-amine] displayed an IC50 not above 20 nM.

Compound `CC(C)Oc1c(-c2cn[nH]c2)ncn2nc(N[C@H]3CCN(S(=O)(=O)CCCN4CCCCC4)C[C@H]3C)nc12` [Example 58, 8-Isopropoxy-N-((3R,4S)-3-methyl-1-((3-(piperidin-1-yl)propyl)sulfonyl)piperidin-4-yl)-7-(1H-pyrazol-4-yl)-[1,2,4]triazolo[1,5-c]pyrimidin-2-amine] registered an IC50 not above 20 nM.

Take `CC(C)Oc1c(-c2cn[nH]c2)ncn2nc(N[C@H]3CCN(S(=O)(=O)CCCN4CCCC4)C[C@H]3C)nc12` [Example 59, 8-Isopropoxy-N-((3R,4S)-3-methyl-1-((3-(pyrrolidin-1-yl)propyl)sulfonyl)piperidin-4-yl)-7-(1H-pyrazol-4-yl)-[1,2,4]triazolo[1,5-c]pyrimidin-2-amine]: the half-inhibitory concentration (IC50) was not above 20 nM.

Regarding `CCN(CC)CCCS(=O)(=O)N1CC[C@H](Nc2nc3c(OC(C)C)c(-c4cn[nH]c4)ncn3n2)[C@H](C)C1` [Example 60, N-((3R,4S)-1-((3-(Diethylamino)propyl)sulfonyl)-3-methylpiperidin-4-yl)-8-isopropoxy-7-(1H-pyrazol-4-yl)-[1,2,4]triazolo[1,5-c]pyrimidin-2-amine], the concentration for half-maximal inhibition (IC50) is not above 20 nM.

For `CC(C)Oc1c(-c2cn[nH]c2)ncn2nc(N[C@H]3CCN(S(=O)(=O)CCCN4CCN(C)CC4)C[C@H]3C)nc12` [Example 61, 8-Isopropoxy-N-((3R,4S)-3-methyl-1-((3-(4-methylpiperazin-1-yl)propyl)sulfonyl)piperidin-4-yl)-7-(1H-pyrazol-4-yl)-[1,2,4]triazolo[1,5-c]pyrimidin-2-amine], the IC50 was not above 20 nM.

`CCN1CCN(CCCS(=O)(=O)N2CC[C@H](Nc3nc4c(OC(C)C)c(-c5cn[nH]c5)ncn4n3)[C@H](C)C2)CC1` [Example 62, N-((3R,4S)-1-((3-(4-Ethylpiperazin-1-yl)propyl)sulfonyl)-3-methylpiperidin-4-yl)-8-isopropoxy-7-(1H-pyrazol-4-yl)-[1,2,4]triazolo[1,5-c]pyrimidin-2-amine] registered a concentration for half-maximal inhibition (IC50) not above 20 nM.

As for `CC(C)Oc1c(-c2cn[nH]c2)ncn2nc(N[C@H]3CCN(S(=O)(=O)CCCCN4CCOCC4)C[C@H]3C)nc12` [Example 63, 8-Isopropoxy-N-((3R,4S)-3-methyl-1-((4-morpholinobutyl)sulfonyl)piperidin-4-yl)-7-(1H-pyrazol-4-yl)-[1,2,4]triazolo[1,5-c]pyrimidin-2-amine], the IC50 is not above 20 nM.

As for `CC(C)Oc1c(-c2cn[nH]c2)ncn2nc(N[C@H]3CCN(S(=O)(=O)CCCCNCC(F)F)C[C@H]3C)nc12` [Example 64, N-((3R,4S)-1-((4-((2,2-Difluoroethyl)amino)butyl)sulfonyl)-3-methylpiperidin-4-yl)-8-isopropoxy-7-(1H-pyrazol-4-yl)-[1,2,4]triazolo[1,5-c]pyrimidin-2-amine], the half-inhibitory concentration (IC50) is not above 20 nM.

With `CCN(C)CCCCS(=O)(=O)N1CC[C@H](Nc2nc3c(OC(C)C)c(-c4cn[nH]c4)ncn3n2)[C@H](C)C1` [Example 65, N-((3R,4S)-1-((4-(Ethyl(methyl)amino)butyl)sulfonyl)-3-methylpiperidin-4-yl)-8-isopropoxy-7-(1H-pyrazol-4-yl)-[1,2,4]triazolo[1,5-c]pyrimidin-2-amine], the IC50 is not above 20 nM.

Regarding `CC(C)Oc1c(-c2cn[nH]c2)ncn2nc(N[C@H]3CCN(S(=O)(=O)CCCCN(C)C)C[C@H]3C)nc12` [Example 66], the IC50 was not above 20 nM.

In the case of `CC(C)Oc1c(-c2cn[nH]c2)ncn2nc(N[C@H]3CCN(S(=O)(=O)CCCCN4CC[C@@H](C(F)F)C4)C[C@H]3C)nc12` [Example 67, N-((3R,4S)-1-((4-((R)-3-(Difluoromethyl)pyrrolidin-1-yl)butyl)sulfonyl)-3-methylpiperidin-4-yl)-8-isopropoxy-7-(1H-pyrazol-4-yl)-[1,2,4]triazolo[1,5-c]pyrimidin-2-amine], the IC50 was not above 20 nM.

For the compound `CC(C)Oc1c(-c2cn[nH]c2)ccc2nc(N[C@H]3CCN(S(C)(=O)=O)C[C@H]3C)nn12` [Example 68, 5-Isopropoxy-N-((3R,4S)-3-methyl-1-(methylsulfonyl)piperidin-4-yl)-6-(1H-pyrazol-4-yl)-[1,2,4]triazolo[1,5-a]pyridin-2-amine], the half-inhibitory concentration (IC50) was not above 20 nM.

In turn, `C[C@@H]1CN(S(C)(=O)=O)CC[C@@H]1Nc1nc2ccc(-c3cn[nH]c3)c(OC3CCC3)n2n1` [Example 69, 5-Cyclobutoxy-N-((3R,4S)-3-methyl-1-(methylsulfonyl)piperidin-4-yl)-6-(1H-pyrazol-4-yl)-[1,2,4]triazolo[1,5-a]pyridin-2-amine] gave an IC50 not above 20 nM.

`CC(C)COc1c(-c2cn[nH]c2)ccc2nc(N[C@H]3CCN(S(C)(=O)=O)C[C@H]3C)nn12` [Example 70, 5-Isobutoxy-N-((3R,4S)-3-methyl-1-(methylsulfonyl)piperidin-4-yl)-6-(1H-pyrazol-4-yl)-[1,2,4]triazolo[1,5-a]pyridin-2-amine] yielded an IC50 not above 20 nM.

In the case of `CCCOc1c(-c2cn[nH]c2)ccc2nc(N[C@H]3CCN(S(C)(=O)=O)C[C@H]3C)nn12` [Example 71, N-((3R,4S)-3-Methyl-1-(methylsulfonyl)piperidin-4-yl)-5-propoxy-6-(1H-pyrazol-4-yl)-[1,2,4]triazolo[1,5-a]pyridin-2-amine], the 50% inhibitory concentration (IC50) is not above 20 nM.

`C[C@@H]1CN(S(C)(=O)=O)CC[C@@H]1Nc1nc2ccc(-c3cn[nH]c3)c(OCC(F)F)n2n1` [Example 72, 5-(2,2-Difluoroethoxy)-N-((3R,4S)-3-methyl-1-(methylsulfonyl)piperidin-4-yl)-6-(1H-pyrazol-4-yl)-[1,2,4]triazolo[1,5-a]pyridin-2-amine] came in with an IC50 not above 20 nM.

`C[C@@H]1CN(S(C)(=O)=O)CC[C@@H]1Nc1nc2ccc(-c3cn[nH]c3)c(OCC(F)(F)C(F)F)n2n1` [Example 73, N-((3R,4S)-3-Methyl-1-(methylsulfonyl)piperidin-4-yl)-6-(1H-pyrazol-4-yl)-5-(2,2,3,3-tetrafluoropropoxy)-[1,2,4]triazolo[1,5-a]pyridin-2-amine]: the IC50 was not above 20 nM.

Take `C[C@@H]1CN(S(C)(=O)=O)CC[C@@H]1Nc1nc2ccc(-c3cn[nH]c3)c(OC3CC3)n2n1` [Example 74, 5-Cyclopropoxy-N-((3R,4S)-3-methyl-1-(methylsulfonyl)piperidin-4-yl)-6-(1H-pyrazol-4-yl)-[1,2,4]triazolo[1,5-a]pyridin-2-amine]: the IC50 is not above 20 nM.

On to `C[C@@H]1CN(S(C)(=O)=O)CC[C@@H]1Nc1nc2ccc(-c3cn[nH]c3)c(OC3CCC(F)(F)C3)n2n1` (stereo partly drawn) [Example 75, 5-((3,3-Difluorocyclopentyl)oxy)-N-((3R,4S)-3-methyl-1-(methylsulfonyl)piperidin-4-yl)-6-(1H-pyrazol-4-yl)-[1,2,4]triazolo[1,5-a]pyridin-2-amine], for which the IC50 was not above 20 nM.

The values above are taken from US11851426B2, “Bicyclic amines as CDK2 inhibitors” (Incyte Corporation, priority 2019, dated 2023).
